Calls of active or inactive are those of the source. No cut-off for these calls is given here. Residues, ends and D or L forms follow the SMILES beside them.
Key:
[1] = test system: N9; assay: Inhibition of NLRP3 inflammasome activation in LPS/ATP-stimulated mouse N9 cells assessed as reduction in IL-1beta mRNA expression by measuring remaining activity at 20 uM by qRT-PCR analysis relative to control; assay type: cell-based
[2] = test system: N9; assay: Inhibition of NLRP3 inflammasome activation mediated pyroptosis in LPS/ATP-stimulated mouse N9 cells assessed as reduction in cell death at 100 uM measured after 24 hrs by MTT assay; assay type: cell-based
[3] = test system: N9; assay: Inhibition of NLRP3 inflammasome activation in LPS/amyloid-beta-stimulated mouse N9 cells assessed as reduction in IL-1beta secretion at 10 to 20 uM preincubated with LPS for 4 hrs followed by compound addition for 30 mins and measured after amyloid-beta stimulation for 16 hrs by ELISA; assay type: cell-based; conditions: dose 10-20 µM, time 16.5 hrs
[4] = test system: N9; assay: Inhibition of NLRP3 inflammasome activation mediated pyroptosis in LPS/ATP-stimulated mouse N9 cells assessed as reduction in number of PI-positive cells preincubated with compound and LPS for 4 hrs followed by ATP addition and measured after 24 hrs by calcein AM/PI staining based confocal imaging analysis; assay type: cell-based; conditions: dose 5-20 µM, time 28.0 hrs
[5] = test system: N9; assay: Inhibition of NLRP3 inflammasome activation mediated pyroptosis in LPS/tau-stimulated mouse N9 cells assessed as reduction in cell death at 5 to 30 uM by MTT assay; assay type: cell-based; conditions: dose 5-30 µM
[6] = test system: N9; assay: (§1) Inhibition of NLRP3 inflammasome activation in LPS/alpha-synuclein-stimulated mouse N9 cells assessed as inhibition of ASC speck formation preincubated with LPS for 4 hrs followed by compound addition by 30 mins and measured after 24 hrs of alpha-synuclein stimulation by DAPI staining based immunofluorescence analysis; assay type: cell-based; conditions: dose 10-20 µM, time 24.5 hrs
[7] = test system: N9; assay: Inhibition of NLRP3 inflammasome activation in LPS/ATP-stimulated mouse N9 cells assessed as increase in intracellular potassium level at 10 to 25 uM preincubated with LPS for 4 hrs followed by compound addition for 30 mins and measured after ATP stimulation for 1 hrs by ICP-OES analysis; assay type: cell-based; conditions: dose 10-25 µM, time 1.5 hrs
[8] = test system: N9; assay: (§2) Inhibition of NLRP3 inflammasome activation mediated ROS production in LPS/ATP-stimulated mouse N9 cells preincubated with LPS for 4 hrs followed by compound addition for 30 mins and measured after ATP stimulation for 1 hrs by DCFDA staining based flow cytometric analysis; assay type: cell-based; conditions: dose 10-30 µM, time 1.5 hrs
[9] = test system: N9; assay: as §1, with “LPS/amyloid-beta-stimulated” for “LPS/alpha-synuclein-stimulated”, “16” for “24”, “amyloid-beta” for “alpha-synuclein”; assay type: cell-based; conditions: dose 10-20 µM, time 16.5 hrs
[10] = test system: N9; assay: Inhibition of NLRP3 inflammasome activation in LPS/tau-stimulated mouse N9 cells assessed as inhibition of ASC speck formation preincubated with LPS for 4 hrs followed by compound addition by 30 mins and measured after 24 hrs of tau stimulation by DAPI staining based immunofluorescence analysis; assay type: cell-based; conditions: dose 10-20 µM, time 24.5 hrs
[11] = biological target: T1, Apoptosis-associated speck-like protein containing a CARD (Homo sapiens, UniProt Q9ULZ3); assay: Binding affinity to Alexa647-labeled ASC (unknown origin) assessed as equilibrium dissociation constant incubated for 30 mins by MST analysis
[12] = Cytotoxicity against mouse N9 cells assessed as reduction in cell viability at 100 uM incubated for 24 hrs by MTT assay; assay type: toxicity, cell-based; conditions: n9, 24 h
[13] = test system: N9; assay: Inhibition of NLRP3 inflammasome activation in LPS/ATP-stimulated mouse N9 cells assessed as inhibition of GSDMD cleavage by DAPI staining based immunofluorescence analysis; assay type: cell-based; conditions: dose 10-20 µM
[14] = Stability of compound in human serum at 100 uM measured over 24 hrs by RP-HPLC analysis; assay type: ADME, cell-free
[15] = test system: N9; assay: Inhibition of NLRP3 inflammasome activation mediated mitochondrial damage in LPS/ATP-stimulated mouse N9 cells assessed as reduction in mitochondrial ROS level by MitoSOX red staining based confocal microscopic analysis; assay type: cell-based; conditions: dose 10-20 µM
[16] = test system: N9; assay: Inhibition of NLRP3 inflammasome activation in LPS/ATP-stimulated mouse N9 cells assessed as reduction in IL-1beta secretion at 10 to 20 uM preincubated with LPS for 4 hrs followed by compound addition for 30 mins and measured after ATP stimulation for 45 mins by ELISA; assay type: cell-based; conditions: dose 10-20 µM, time 75.0 min
[17] = Stability of compound in fetal bovine serum at 100 uM measured after 48 hrs by RP-HPLC analysis; assay type: ADME, cell-free, Bos taurus; conditions: cattle
[18] = Inhibition of NLRP3 inflammasome activation in LPS/ATP-stimulated mouse N9 cells assessed as inhibition of IL-1beta mRNA expression by qRT-PCR analysis; assay type: cell-based
[19] = test system: N9; assay: Inhibition of NLRP3 inflammasome activation mediated pyroptosis in LPS/ATP-stimulated mouse N9 cells assessed as reduction in cell death preincubated with compound followed by LPS stimulation by MTT assay; assay type: cell-based; conditions: dose 5-20 µM
[20] = test system: N9; assay: Inhibition of NLRP3 inflammasome activation in LPS/ATP-stimulated mouse N9 cells assessed as reduction in caspase-1 mRNA expression by measuring remaining activity at 20 uM by qRT-PCR analysis relative to control; assay type: cell-based
[21] = test system: N9; assay: Effect on TNF-alpha mRNA expression in LPS/ATP-stimulated mouse N9 cells at 1 to 100 uM by qRT-PCR analysis; assay type: functional, cell-based; conditions: dose 1-100 µM
[22] = test system: N9; assay: Inhibition of NLRP3 inflammasome activation mediated in LPS/alpha-synuclein-stimulated mouse N9 cells assessed as increase in mitochondrial membrane potential by flow cytometric analysis; assay type: cell-based; conditions: dose 5-30 µM
[23] = test system: N9; assay: as §2, with “activation” for “activation mediated ROS production”, “cells assessed as increase in mitochondrial membrane potential” for “cells”, “Rhodamine 123” for “DCFDA”; assay type: cell-based; conditions: dose 10-30 µM, time 1.5 hrs
[24] = Inhibition of NLRP3 inflammasome activation in LPS/ATP-stimulated mouse N9 cells assessed as inhibition of caspase-1 mRNA expression by qRT-PCR analysis; assay type: cell-based
[25] = test system: N9; assay: Inhibition of NLRP3 inflammasome activation in LPS/amyloid-beta-stimulated mouse N9 cells assessed as reduction in IL-1beta secretion at 10 to 20 uM preincubated with LPS for 4 hrs followed by compound addition for 30 mins and measured after amyloid-beta stimulation for 24 hrs by ELISA; assay type: cell-based; conditions: dose 10-20 µM, time 24.5 hrs
[26] = test system: N9; assay: Inhibition of NLRP3 inflammasome activation mediated in LPS/alpha-synuclein-stimulated mouse N9 cells assessed as decrease in mitochondrial ROS generation by flow cytometric analysis; assay type: cell-based; conditions: dose 5-30 µM
[27] = test system: N9; assay: Inhibition of AIM2 inflammasome activation mediated pyroptosis in LPS/poly(dA:dT)-stimulated mouse N9 cells assessed as reduction in cell death at 50 uM by MTT assay; assay type: cell-based
[28] = test system: N9; assay: Inhibition of NLRP3 inflammasome activation in LPS/ATP-stimulated mouse N9 cells assessed as increase in intracellular chloride level preincubated with LPS for 4 hrs followed by compound addition for 30 mins and measured after ATP stimulation for 50 mins by MQAE dye based analysis; assay type: cell-based; conditions: time 80.0 min
[29] = test system: N9; assay: Inhibition of NLRP3 inflammasome activation mediated in LPS/amyloid-beta-stimulated mouse N9 cells assessed as decrease in mitochondrial ROS generation by flow cytometric analysis; assay type: cell-based; conditions: dose 5-30 µM
[30] = biological target: T1, Apoptosis-associated speck-like protein containing a CARD; assay: Binding affinity to ASC (unknown origin) assessed as shift in ASC protein band at 0.5 to 2 uM by native PAGE analysis; conditions: dose 0.5-2 µM
[31] = test system: N9; assay: Inhibition of NLRP3 inflammasome activation mediated in LPS/tau-stimulated mouse N9 cells assessed as decrease in mitochondrial ROS generation by flow cytometric analysis; assay type: cell-based; conditions: dose 5-30 µM
[32] = test system: HEK-293T; assay: Cytotoxicity against HEK293T cells assessed as reduction in cell viability upto 100 uM measured after 24 hrs by MTT assay; assay type: toxicity, cell-based; conditions: human

T1 sequence (Q9ULZ3 whole entry): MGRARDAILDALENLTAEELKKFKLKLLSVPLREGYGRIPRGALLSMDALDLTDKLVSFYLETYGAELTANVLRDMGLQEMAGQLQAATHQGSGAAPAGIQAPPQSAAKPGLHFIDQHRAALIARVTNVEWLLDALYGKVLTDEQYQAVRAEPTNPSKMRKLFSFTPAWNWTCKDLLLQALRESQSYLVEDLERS

- Kd [11]: ~0.149 µM
- Stability [14]: Stable
- Stability [17]: Stable
- IC50 [18]: 2.57 µM
- IC50 [24]: 16.2 µM
- Activity [30]: Active
SMILES: CC[C@H](C)[C@H](NC(=O)[C@H](C)NC(=O)[C@H](C)NC(=O)[C@H](CC(C)C)NC(=O)[C@@H](NC(=O)[C@H](Cc1c[nH]c2ccccc12)NC(=O)[C@@H](N)C(C)C)[C@@H](C)CC)C(=O)N[C@@H](CC(N)=O)C(=O)N[C@@H](CCCNC(=N)N)C(=O)N[C@@H](CCCNC(=N)N)C(=O)O (H-VWILAAINRR-OH)
- Activity [1]: 50%
- inhibition [2]: Active
- inhibition [3]: Dose-dependent-effect
- inhibition [4]: Dose-dependent-effect
- inhibition [5]: Active
- inhibition [6]: Dose-dependent-effect
- inhibition [7]: Active
- inhibition [8]: Dose-dependent-effect
- inhibition [9]: Dose-dependent-effect
- inhibition [10]: Dose-dependent-effect
- Activity [12]: Non-toxic
- inhibition [13]: Dose-dependent-effect
- inhibition [15]: Dose-dependent-effect
- inhibition [16]: Active
- inhibition [19]: Dose-dependent-effect
- Activity [20]: 15%
- Activity [21]: inactive
- inhibition [22]: Dose-dependent-effect
- inhibition [23]: Dose-dependent-effect
- inhibition [25]: Dose-dependent-effect
- inhibition [26]: Dose-dependent-effect
- inhibition [27]: Active
- inhibition [28]: Active
- inhibition [29]: Dose-dependent-effect
- inhibition [31]: Dose-dependent-effect
- Activity [32]: Non-toxic

Source: ChEMBL document CHEMBL6121055, “Strategic Mutations in Designer Native Peptides Combat NLRP3 Inflammasome Activation in Neurodegenerative Disorders” (J Med Chem, 2025)
